# Where two headings read alike, the source gives them in different places.
# How the values were obtained:
# Type in all cases: biochemical
# [1] = target: Human Aldose Reductase (Homo sapiens, UniProt P15121); assay: Human Aldose Reductase Inhibition
# [2] = target: Rat Aldose Reductase (Rattus norvegicus, UniProt P07943); assay: Rat Aldose Reductase Inhibition; conditions: for inhibition at 100 µM: 10^-4, read-out: In vitro Aldose Reductase Inhibition; for inhibition at 10 µM: 10^-5, read-out: In vitro Aldose Reductase Inhibition; for inhibition at 1 µM: 10^-6, read-out: In vitro Aldose Reductase Inhibition; for inhibition at 0.1 µM: 10^-7, read-out: In vitro Aldose Reductase Inhibition; for inhibition at 0.01 µM: 10^-8, read-out: In vitro Aldose Reductase Inhibition
# From the text: Biophysical Chemistry, 8 (1978) 81-85; P. F. Kador, L. O. Merola and J. H
# Kinoshita Documenta Ophthamologica, 18 (1979) 117.
# [3] = tested on: aldose reductase; assay: aldose reductase inhibition of spiro-xanthene-imidazolidines (in words)
# [4] = 10^-4, human, read-out: In vitro Aldose Reductase Inhibition
# [5] = 10^-5, human, read-out: In vitro Aldose Reductase Inhibition
# [6] = 10^-6, human, read-out: In vitro Aldose Reductase Inhibition
# [7] = read-out: In vitro Aldose Reductase Inhibition
compound,measurement,setting,value
"O=C1NC(=O)C2(N1)c1ccccc1-c1ccc([N+](=O)[O-])cc12 (racemic) [C, dl-Spiro-[2-nitrofluoren-9,4'-imidazolidine]-2',5'-dione]",inhibition at 100 µM,[1]; [4],65%
same,inhibition at 10 µM,[1]; [5],20%
same,inhibition at 1 µM,[1]; [6],8%
"O=C1NC(=O)C2(N1)c1ccccc1-c1ccc(Br)cc12 (racemic) [E, dl-Spiro-[2-bromofluoren-9,4'-imidazolidine]-2', 5'-dione]",inhibition at 100 µM,[2],100%
same,inhibition at 10 µM,[2],82%
same,inhibition at 1 µM,[2],62%
same,inhibition at 0.1 µM,[2],33%
same,inhibition at 0.01 µM,[2],8%
"Nc1cccc2c1-c1ccccc1C21NC(=O)NC1=O (racemic) [G, dl-Spiro-[4-aminofluoren-9,4'-imidazolidine]-2',5'-dione]",inhibition at 100 µM,[1]; [4],50%
same,inhibition at 10 µM,[1]; [5],28%
same,inhibition at 1 µM,[1]; [6],20%
"Nc1ccc2c(c1)C1(NC(=O)NC1=O)c1ccccc1-2 (racemic) [H, dl-Spiro-[2-aminofluoren-9,4'-imidazolidine]-2',5'-dione]",inhibition at 100 µM,[1]; [4],43%
same,inhibition at 10 µM,[1]; [5],31%
same,inhibition at 1 µM,[1]; [6],0%
"O=C1NC(=O)C2(N1)c1ccccc1-c1ccc(I)cc12 (racemic) [J, dl-Spiro-[2-iodofluoren-9,4'-imidazolidine]-2',5'-dione]",inhibition at 100 µM,[1]; [4],94%
same,inhibition at 10 µM,[1]; [5],88%
same,inhibition at 1 µM,[1]; [6],77%
same,inhibition at 0.1 µM,"[1]; 10^-7, human, read-out: In vitro Aldose Reductase Inhibition",39%
same,inhibition at 0.01 µM,"[1]; 10^-8, human, read-out: In vitro Aldose Reductase Inhibition",0%
"Cc1cccc2c1C1(NC(=O)NC1=O)c1ccccc1-2 (racemic) [K, dl-Spiro-[1-methylfluoren-9,4'-imidazolidine]-2',5'-dione]",inhibition at 100 µM,[2],96%
same,inhibition at 10 µM,[2],85%
same,inhibition at 1 µM,[2],47%
same,inhibition at 0.1 µM,[2],6%
"O=C1NC(=O)C2(N1)c1ccccc1-c1ccc(C(=O)O)cc12 (racemic) [N, dl-Spiro-[2-carboxyfluoren-9,4'-imidazolidine]-2',5'-dione]",inhibition at 100 µM,[2],89%
same,inhibition at 10 µM,[2],54%
same,inhibition at 1 µM,[2],0%
"CSc1ccc2c(c1)C1(NC(=O)NC1=O)c1ccccc1-2 (racemic) [P, dl-Spiro-[2-methylthiofluoren-9,4'-imidazolidine]-2',5'-dione]",IC50,[2],420 nM
"C[S+]([O-])c1ccc2c(c1)C1(NC(=O)NC1=O)c1ccccc1-2 (racemic) [Q, Spiro-[2-(R,S)-methylsulfinylfluoren-9, (R,S)-4'-imidazolidine]-2',5'-dione]",IC50,[2],1700 nM
"CS(=O)(=O)c1ccc2c(c1)C1(NC(=O)NC1=O)c1ccccc1-2 (racemic) [R, dl-Spiro-(2-methylsulfonylfluoren-9,4'-imidazolidine)-2',5'-dione]",IC50,[2],5000 nM
"O=C1NC(=O)C2(N1)c1ccccc1-c1cccc(F)c12 (racemic) [S, dl-Spiro-[1-fluorofluoren-9,4'-imidazolidine]-2',5'-dione]",IC50,[2],590 nM
"O=C1NC(=O)C2(N1)c1ccccc1-c1c(F)cccc12 (racemic) [U, dl-Spiro-[4-fluorofluoren-9,4'-imidazolidine]-2',5'-dione]",IC50,[2],460 nM
"O=C1NC(=O)C2(N1)c1ccccc1-c1ccccc12 [A, Spiro-(fluoren-9,4'-imidazolidine)-2',5'-dione]",IC50,[1]; human,1200 nM
same,inhibition at 0.1 µM,[1]; [7],13%
same,inhibition at 1 µM,[1]; [7],49%
same,inhibition at 10 µM,[1]; [7],84%
same,inhibition at 100 µM,[1]; [7],89%
"O=C1NC(=O)C2(N1)c1cc(Cl)ccc1-c1ccc(Cl)cc12 [Compound B, Spiro-[2,7-dichlorofluoren-9,4'-imidazolidine]-2',5'-dione]",In vitro Aldose Reductase Inhibition,"[1]; 10^-4, human",65
same,In vitro Aldose Reductase Inhibition,"[1]; 10^-5, human",30
same,In vitro Aldose Reductase Inhibition,"[1]; 10^-6, human",12
"O=C1NC(=O)C2(N1)c1cc([N+](=O)[O-])ccc1-c1ccc([N+](=O)[O-])cc12 [Compound D, Spiro [2,7-dinitrofluoren-9,4'-imidazolidine]-2',5'-dione]",inhibition at 1 µM,[1]; [7],20%
same,inhibition at 10 µM,[1]; [7],76%
same,inhibition at 100 µM,[1]; [7],100%
"O=C1NC(=O)C2(N1)c1cc(Br)ccc1-c1ccc(Br)cc12 [F, Spiro-[2,7-dibromofluoren-9,4'-imidazolidine]-2',5'-dione]",inhibition at 10 µM,[2],94%
same,inhibition at 1 µM,[2],76%
same,inhibition at 0.1 µM,[2],55%
same,inhibition at 0.01 µM,[2],12%
"Nc1ccc2c(c1)C1(NC(=O)NC1=O)c1cc(N)ccc1-2 [I, Spiro-[2,7-diaminofluoren-9,4'-imidazolidine]-2',5'-dione]",inhibition at 100 µM,[1]; [4],50%
same,inhibition at 10 µM,[1]; [5],25%
same,inhibition at 1 µM,[1]; [6],10%
"O=C1NC(=O)C2(CCOc3ccc(F)cc32)N1 (stereo not shown) [Sarges Resolved, dSpiro-(6-fluorochroman-4,4imidazolidine)-2',5dione, reference compound]",activity against human aldose reductase as compared to rat aldose reductase,[1]; human vs rat,one fourth
"O=C1NC(=O)C2(N1)c1cc(F)ccc1Oc1ccc(F)cc12 [spiro-(2,7-difluroxanthen-9,4'-imidazolidine)-2',5'-dione]",activity as aldose reductase inhibitors relative to corresponding tetracyclic fluorene compounds,[3],unexpectedly less active
"O=C1NC(=O)C2(N1)c1ccccc1Oc1ccccc12 [spiro-(xanthen-9,4'-imidazolidine)-2',5'-dione]",activity as aldose reductase inhibitors relative to corresponding tetracyclic fluorene compounds,[3],unexpectedly less active
